Assay results taken from ChEMBL document CHEMBL1122661, “Vinylogous amino acid esters: a new class of inactivators for thiol proteases” (J Med Chem, 1984).
The source made the active and inactive calls. No cut-off for these calls is given here. Where a SMILES comes first, the peptide text is derived from it.

Key:
[1] = Inhibition of hydrolysis of Z-Gly-NPby administration of the compound
Papain (Carica papaya) [2] = molecular target: T1, Papain (Carica papaya) (UniProt P00784); assay: Inhibitory activity against papain; No detectab inactivation
T1 sequence (whole entry): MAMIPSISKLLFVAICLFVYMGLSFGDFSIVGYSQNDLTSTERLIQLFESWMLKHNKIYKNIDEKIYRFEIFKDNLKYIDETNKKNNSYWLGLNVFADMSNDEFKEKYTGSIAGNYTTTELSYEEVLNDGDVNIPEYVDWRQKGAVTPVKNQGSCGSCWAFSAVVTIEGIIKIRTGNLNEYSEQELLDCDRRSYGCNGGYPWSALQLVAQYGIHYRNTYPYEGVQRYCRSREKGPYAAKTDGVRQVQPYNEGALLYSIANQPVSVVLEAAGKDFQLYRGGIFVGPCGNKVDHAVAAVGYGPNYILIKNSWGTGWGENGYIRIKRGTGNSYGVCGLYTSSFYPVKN

Papain [3] = molecular target: T2, Papain (Carica papaya, UniProt P00784); assay: Inhibitory activity against papain; Weak competitive inhibitor
T2 sequence (P00784 whole entry): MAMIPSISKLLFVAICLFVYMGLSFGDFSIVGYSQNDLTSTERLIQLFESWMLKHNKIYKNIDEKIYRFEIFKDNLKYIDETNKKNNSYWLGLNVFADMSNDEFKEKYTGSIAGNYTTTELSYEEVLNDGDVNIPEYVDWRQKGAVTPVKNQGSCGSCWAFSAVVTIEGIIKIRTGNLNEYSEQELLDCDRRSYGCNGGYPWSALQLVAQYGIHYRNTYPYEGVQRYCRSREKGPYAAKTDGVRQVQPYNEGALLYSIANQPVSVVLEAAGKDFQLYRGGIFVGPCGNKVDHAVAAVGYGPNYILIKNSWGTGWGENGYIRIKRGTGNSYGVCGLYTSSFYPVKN

Papain (Carica papaya) [4] = molecular target: T1, Papain (Carica papaya); assay: Pseudo first order rate constant against papain
Papain [5] = molecular target: T2, Papain; assay: Inhibitory activity against papain
[6] = Inhibition of hydrolysis of Z-Gly-NP by administration of the 1 uM compound; Markedly inhibited
[7] = substrate: O=C(O)CNC(=O)OCc1ccccc1; assay: Papain-catalyzed hydrolysis was expressed as Km

Molecule: CC(=O)N[C@@H](Cc1ccccc1)C(=O)NCC(N)=O (Ac-Phe-Gly-NH2)
- Ki [1]: 4.7 mM

Molecule: COC(=O)/C=C/C(Cc1ccccc1)NC(C)=O (stereo not drawn)
- inhibition (Papain (Carica papaya) [2]): inactive

Molecule: C=CCNC(=O)C(Cc1ccccc1)NC(C)=O (stereo not drawn)
- Ki (Papain [3]): > 5 mM

Molecule: COC(=O)/C=C/CNC(=O)C(Cc1ccccc1)NC(C)=O (stereo not drawn)
- K2 (Papain (Carica papaya) [4]): 0.00182 s⁻¹
- Ki (Papain [5]): 0.026 mM
- inhibition [6]: Markedly inhibited

Molecule: COC(=O)CCCNC(=O)C(Cc1ccccc1)NC(C)=O (stereo not drawn)
- Ki (Papain [3]): > 5 mM

B1: Papain (Carica papaya), P00784 (protein)
chain: MAMIPSISKLLFVAICLFVYMGLSFGDFSIVGYSQNDLTSTERLIQLFESWMLKHNKIYKNIDEKIYRFEIFKDNLKYIDETNKKNNSYWLGLNVFADMSNDEFKEKYTGSIAGNYTTTELSYEEVLNDGDVNIPEYVDWRQKGAVTPVKNQGSCGSCWAFSAVVTIEGIIKIRTGNLNEYSEQELLDCDRRSYGCNGGYPWSALQLVAQYGIHYRNTYPYEGVQRYCRSREKGPYAAKTDGVRQVQPYNEGALLYSIANQPVSVVLEAAGKDFQLYRGGIFVGPCGNKVDHAVAAVGYGPNYILIKNSWGTGWGENGYIRIKRGTGNSYGVCGLYTSSFYPVKN
- Km [7]: 10.3 µM
